Patent US6043212A, “Recombinant C140 receptor, its agonists and antagonists, and nucleic acids encoding the receptor” (COR Therapeutics, Inc., priority 1995, dated 2000)
Residue numbers refer to the chain shown, from its start. Peptide text beside a SMILES is read from it.

What was measured:
rat femoral vein = assay: Vasodilation of isolated rat femoral vein contracted with PGF2α (organ bath); conditions: PGF2α 3×10^-5 M, test substance 10^-5 M
Protocol: This effect was also shown by observing vasodilation as a result of stimulation of the rat femoral vein with the above agonist. Adult Sprague-Dawley rats were killed by exsanguination during diethylether anesthesia and the femoral vein was removed and dissected free from fat and connective tissue. Circular preparations of the vein were mounted in an organ bath (5 ml) on two L-formed metal holders (0.2 mm diameter). One of the metal holders was screwed into one of the levers of a Grass FTO C force displacement transducer. The bathing liquid was Kreb's Ringer solution containing 118 mM NaCl, 4.7 mM KCl, 2.5 mM CaCl2, 1.2 MM MgSO4, 24.8 mM NaHCO3, 1.2 mM KH2 PO4 and 5.6 mM glucose. The bathing fluid was continuously treated with 88.5% oxygen-11.5% CO2; the temperature was held at 37° C. The endothelium was removed by bubbling CO2 through the vessels. The basal tension was between 7.5 and 12 mN. The preparations were equilibrated for at least 1 hr before application of agonist and control substances.

[1] = target: T1, mutant C140 receptor 35His (serine-35 replaced with histidine) (Mus musculus, UniProt P55086, S39H); assay: 45Ca release by Xenopus oocytes expressing mutant C140 receptor 35His; assay type: cell-based; conditions: 35His receptor
T1 construct: Site-directed mutagenesis was employed to construct mutant receptors in the pSG-5; expressed in transfected cells; host or cells: Xenopus laevis oocytes injected with capped cRNA
T1 sequence (P55086 32-399 S39H limits assumed): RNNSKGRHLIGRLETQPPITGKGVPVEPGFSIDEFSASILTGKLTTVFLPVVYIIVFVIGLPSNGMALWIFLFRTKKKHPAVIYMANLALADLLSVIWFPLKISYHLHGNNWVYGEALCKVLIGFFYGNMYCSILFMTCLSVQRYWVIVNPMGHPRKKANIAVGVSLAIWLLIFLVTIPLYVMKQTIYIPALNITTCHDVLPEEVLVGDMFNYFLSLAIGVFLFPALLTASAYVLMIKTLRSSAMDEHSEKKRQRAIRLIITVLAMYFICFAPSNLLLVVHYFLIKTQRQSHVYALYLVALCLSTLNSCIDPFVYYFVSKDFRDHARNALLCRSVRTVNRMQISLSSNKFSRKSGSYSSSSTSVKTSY
Source text: (§1) Both native and mutant C140 receptors were produced in oocytes and activated with a peptide mimicking the new amino-terminus", or by the proteolytic enzyme trypsin (which cleaves the extracellular region). Native receptors were produced by cloning the coding region of the receptor gene, using the polymerase chain reaction, into the expression vector pSG-5 (Green, S. et al., Nucleic Acid Res (1988) 16:369). The orientation and integrity of the cloned coding region was verified by determining the nucleotide sequence with the Sanger chain-termination method. Site-directed mutagenesis was employed to construct mutant receptors in the pSG-5. […]
(§2) Oocytes from Xenopus laevis were harvested and prepared using published techniques (Coleman, A., in Hames, B. D., and Higgins, S. J., eds, Transcription and Translation: A Practical Approach, IRL Press, pp. 271-302; Williams, J. A., et al. Proc Natl Acad Sci USA (1988) 85:4939-4943]. To remove follicular cells, oocytes were incubated for 1.5 h with shaking in calcium-free Barth's containing 2 mg/ml each of collagenase 1A and hyaluronidase 1S. The oocytes were then washed five times in regular Barth's and incubated at 18° C. in Barth's medium containing 100 U/ml penicillin, 100 μg/ml streptomycin, and 2.5 mM sodium pyruvate. […] The harvested medium was analyzed by scintillation counting. […]

[2] = target: T2, mutant C140 receptor 35Pro (serine-35 replaced with proline) (Mus musculus, UniProt P55086, S39P); assay: 45Ca release by Xenopus oocytes expressing mutant C140 receptor 35Pro; assay type: cell-based; conditions: 35Pro receptor
T2 construct: Site-directed mutagenesis was employed to construct mutant receptors in the pSG-5; expressed in transfected cells; host or cells: Xenopus laevis oocytes injected with capped cRNA
T2 sequence (P55086 32-399 S39P limits assumed): T1 sequence (P55086 32-399 S39H limits assumed) with H8P
Source text: as §1, §2

C140 receptor = target: T3, C140 receptor (Mus musculus, UniProt P55086); assay: Activation of frog oocytes injected with C140 receptor cRNA by proteases; assay type: cell-based; conditions: FIG. 9c
T3 construct: expressed in transfected cells; host or cells: frog oocytes injected with C140 receptor cRNA
T3 sequence (P55086 26-399): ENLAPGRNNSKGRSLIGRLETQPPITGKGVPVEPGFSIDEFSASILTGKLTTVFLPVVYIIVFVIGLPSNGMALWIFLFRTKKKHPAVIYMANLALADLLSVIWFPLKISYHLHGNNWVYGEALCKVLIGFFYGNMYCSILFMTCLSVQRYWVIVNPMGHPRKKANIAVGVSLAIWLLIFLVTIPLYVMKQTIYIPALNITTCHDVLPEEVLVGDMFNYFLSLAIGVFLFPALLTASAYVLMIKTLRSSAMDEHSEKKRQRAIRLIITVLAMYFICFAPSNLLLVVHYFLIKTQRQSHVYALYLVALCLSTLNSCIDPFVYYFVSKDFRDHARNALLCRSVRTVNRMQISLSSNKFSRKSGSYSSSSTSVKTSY
Source text: FIGS. 9a and 9b show the ability of plasmin and kallikrein respectively to activate oocytes injected with C140 cRNA (open circles) or water (crosses) as control.

[3] = peptide at 100 μM, same oocytes after trypsin stimulation
[4] = trypsin at 300 pM, increase compared to water-injected oocytes

| Fold increase in 45Ca [1, 4] | Fold increase in 45Ca [2, 4] | Activation of oocytes injected with C140 receptor cRNA versus substance K receptor cRNA (C140 receptor) | Compound | Effect on contraction induced by PGF2α (rat femoral vein; endothelium present, FIG. 8a) | Effect on contraction induced by PGF2α (rat femoral vein; endothelium removed, FIG. 8b) | Fold increase in 45Ca [1, 3] | Fold increase in 45Ca [2, 3] |
| --- | --- | --- | --- | --- | --- | --- | --- |
| – | – | – | CC[C@H](C)[C@H](NC(=O)[C@H](CC(C)C)NC(=O)[C@@H](N)CO)C(=O)NCC(=O)N[C@@H](CCCNC(=N)N)C(=O)N[C@@H](CC(C)C)C(=O)O [SLIGRL] (H-SLIGRL-OH) | relaxed | not counteracted | 23 fold | 23 fold |
| 0 fold | 0 fold | differential effect | trypsin | – | – | – | – |
